Results published in patent US20110257146A1, “Method of Treating Kcnq Related Disorders Using Organozinc Compounds” (The johns Hopkins University, priority 2006, published 2011).

How the values were obtained:
[1] = Mouse model of severe focal ischemia; conditions: in vivo
KCNQ2(L249A/L275A) = biological target: T1, KCNQ2(L249A/L275A) (Rattus norvegicus, UniProt O88943, L249A/L275A); assay: Whole-cell recording of KCNQ2(L249A/L275A) mutant; type: cell-based
T1 construct: expressed in transfected cells
Excerpt: FIG. 9. KCNQ2 point mutants selectively lose ZnPy sensitivity. […] Each mutation site was indicated based on the predicted transmembrane regions. Dashed line indicates the potentiation level of wt KCNQ2 channel in the absence of ZnPy. […] C. Modeling of the S5-pore-S6 region of KCNQ2.
Mutagenesis—Starting from KCNQ cDNAs, the KCNQ2 point mutants were constructed by recombinant PCR and verified by sequencing.
(§1) Electrophysiological Recording—Standard whole-cell recording was used. Pipettes were pulled from borosilicate glass capillaries (TW150-4, World Precision Instruments, Sarasota, Fla.). When filled with the intracellular solution, the pipettes have resistances of […]. During the recording, constant perfusion of extracellular solution was maintained using a BPS perfusion system (ALA, Westbury, N.Y.). Pipette solution contained (mM): KCl 145, MgCl2 1, EGTA 5, HEPES 10, MgATP 5 (pH 7.3); extracellular solution contained (mM): NaCl 140, KCl 3, CaCl2 2, MgCl2 1.5, HEPES 10, glucose 10 (pH 7.4). Current and voltage were recorded using an Axopatch-200A amplifier, filtered at 1 kHz and digitized using a DigiData 1322A with pClamp 9.2 software (Axon Instruments, Foster City, Calif.). Series resistance compensation was also used and set to 60-80%.

hippocampal neurons = assay: Membrane potential and elicited action potentials of isolated hippocampal neurons; type: cell-based, rat; conditions: 10 μM ZnPy
Procedure: FIG. 10. ZnPy potentiation of native M-current. A. M current recorded from an isolated rat dorsal root ganglion neuron, Vh was −60 mV, stepped to −20 mV, followed by a step to −50 mV, and stepped back to −20 mV. B. Histograms show M-current amplitudes in the presence and absence of 10 μM ZnPy (n=10, * p<0.001). M-current amplitudes were measured by fitting the IM relaxation with an exponential equation. The recording bath solution includes 1 μM TTX, 0.2 mM TEA, 1 mM 4-AP, 50 μM CNQX, and 10 μM bicuculline. C. Membrane potential of an isolated hippocampal neuron was monitored when 10 μM ZnPy was applied in bath solution followed by the addition of 15 μM linopirdine. D. Action potentials elicited by 200 pA current injection to a patched hippocampal neuron. The ZnPy treatments are as indicated.
Neuron Culture—Dorsal root ganglia (DRG) was collected from fourteen-day-old CD rat and incubated in collagenase (sigma, 500 U/ml, 15 min) and then trypsin (Sigma, 1 mg/ml, 30 min) at 37° C. Single DRG neurons were isolated by mechanical trituration with a fire-polished glass Pasteur pipette. Hippocampal tissue was dissected out from CD rat postnatal day 0. The tissue was digested with papain (Worthington Biochem, 20 U/ml, 30 min) and resuspended into single cells. The single-cell suspension was plated onto a monolayer of glial cells that were growing on coated cover slips. Cytosine-1-D-arabinofuranoside at 5 μM was added into the culture medium 24-48 hours later to arrest glial cell proliferation. The culture medium consisted of Neurobasal™ medium with B-27 supplement (Gibco), penicillin/streptomycin and 2 mM L-glutamine. All cells were maintained at 37° C. with 5% CO2 prior to recording.
Electrophysiological Recording—Standard whole-cell recording was used. Pipettes were pulled from borosilicate glass capillaries (TW150-4, World Precision Instruments, Sarasota, Fla.). […] Current and voltage were recorded using an Axopatch-200A amplifier, filtered at 1 kHz and digitized using a DigiData 1322A with pClamp 9.2 software (Axon Instruments, Foster City, Calif.). […]

KCNQ2 = KCNQ2 (Rattus norvegicus, UniProt O88943); assay: Whole-cell voltage clamp of CHO cells expressing KCNQ2; type: cell-based; design: expressed in transfected cells; host or cells: CHO cells
Procedure: (§2) Cell culture and transient transfection—Chinese Hamster Ovary (CHO) cells were grown in 50/50 DMEM/F12 (Cellgro) with 10% FBS (Gibco), 100 U/ml penicillin (Cellgro), 100 μg/ml streptomycin (Cellgro) and 2 mM L-glutamine (Gibco). At 24 hours before transfection, cells were split and plated in 60 mm dishes and were transfected with Lipofectamine2000™ reagent (Invitrogen) according to the manufacturer's instruction. At 24 hours after transfection, cells were split and re-plated onto coverslips coated with poly-L-lysine (Sigma). Plasmid expressing CD4 cDNA as a marker was cotransfected with the channel cDNAs of hKCNQ1 (from Dr. Michael Sanguinetti), hKCNQ4 (from Dr. Vitya Vardanyan), rKCNQ2, rKCNQ3, and hKCNQ5 (from Drs. David McKinnon, Mark Shapiro, and Thomas Jentsch). Prior to recording, anti-CD4 Dynabeads (Dynal. Biotech. Inc.) were added into the medium to allow for identification of the transfected cells. Stable lines expressing Kv2.1, hERG, and Kv4.2 were generated by standard protocols using pcDNA3.1 and maintained at complete medium supplemented with 500 μg/ml G418. The N-type calcium channel stable line was a kind gift from Drs. Diane Lipscombe and David Yue.
as §1
(§3) Data and Statistical Analysis—Patch-clamp data were preprocessed using Clampfit 9.2 (Axon Instruments, Foster City, Calif.) and then analyzed in Origin 7 (OriginLab, Northampton, Mass.). The activation curve was fitted by the Boltzmann equation: G=(Gmax−Gmin)/[1+exp[(V−V1/2)/S]]+Gmin, where Gmax is the maximum conductance, Gmin is the minimum conductance, V1/2 is the voltage for half of the total numbers of channels to open, and S is the slope factor. The dose response curve was fitted by the Hill equation: E=Emax/(1+(EC50/C)^P), where Emax is the maximum response, C is the drug concentration, EC50 is the drug concentration producing half of the maximum response, and P is the Hill coefficient. The deactivation trace was fitted by the standard exponential equation: I(t)=ΣIi*exp(−t/τi), where I is the current, t is the time and τ is the time constant. Data are presented as means±SE. Significance was estimated using paired two-tailed Student's t-test.

[2] = Rat model of severe global ischemia; conditions: in vivo
KCNQ5 = biological target: T2, KCNQ5 (Homo sapiens, UniProt Q9NR82); assay: Whole-cell voltage clamp of CHO cells expressing KCNQ5; type: cell-based; conditions: 10 μM ZnPy, extracellular
T2 construct: expressed in transfected cells; host or cells: CHO cells
Procedure: as §2, with “The N-type calcium channel stable line was a kind gift from Drs. Diane Lipscombe and David Yue.” left out
(§4) Electrophysiological Recording—Standard whole-cell recording was used. […] Current and voltage were recorded using an Axopatch-200A amplifier, filtered at 1 kHz and digitized using a DigiData 1322A with pClamp 9.2 software (Axon Instruments, Foster City, Calif.). […]

[3] = biological target: T3, Kv2.1 delay rectifier voltage-gated potassium channel (Homo sapiens, UniProt Q14721); assay: Channel activity in Kv2.1 stable line; type: cell-based
T3 construct: expressed in transfected cells
Procedure: as §2, with “The N-type calcium channel stable line was a kind gift from Drs. Diane Lipscombe and David Yue.” left out
as §4

KCNQ2/3 heteromultimers = biological target: T4, KCNQ2/3 heteromultimers (Rattus norvegicus, UniProt O88943+O88944); assay: Whole-cell voltage clamp of CHO cells expressing KCNQ2/3 heteromultimers; type: cell-based
T4 construct: expressed in transfected cells
Procedure: as §2, §1, §3

T3 sequence (Q14721 whole entry): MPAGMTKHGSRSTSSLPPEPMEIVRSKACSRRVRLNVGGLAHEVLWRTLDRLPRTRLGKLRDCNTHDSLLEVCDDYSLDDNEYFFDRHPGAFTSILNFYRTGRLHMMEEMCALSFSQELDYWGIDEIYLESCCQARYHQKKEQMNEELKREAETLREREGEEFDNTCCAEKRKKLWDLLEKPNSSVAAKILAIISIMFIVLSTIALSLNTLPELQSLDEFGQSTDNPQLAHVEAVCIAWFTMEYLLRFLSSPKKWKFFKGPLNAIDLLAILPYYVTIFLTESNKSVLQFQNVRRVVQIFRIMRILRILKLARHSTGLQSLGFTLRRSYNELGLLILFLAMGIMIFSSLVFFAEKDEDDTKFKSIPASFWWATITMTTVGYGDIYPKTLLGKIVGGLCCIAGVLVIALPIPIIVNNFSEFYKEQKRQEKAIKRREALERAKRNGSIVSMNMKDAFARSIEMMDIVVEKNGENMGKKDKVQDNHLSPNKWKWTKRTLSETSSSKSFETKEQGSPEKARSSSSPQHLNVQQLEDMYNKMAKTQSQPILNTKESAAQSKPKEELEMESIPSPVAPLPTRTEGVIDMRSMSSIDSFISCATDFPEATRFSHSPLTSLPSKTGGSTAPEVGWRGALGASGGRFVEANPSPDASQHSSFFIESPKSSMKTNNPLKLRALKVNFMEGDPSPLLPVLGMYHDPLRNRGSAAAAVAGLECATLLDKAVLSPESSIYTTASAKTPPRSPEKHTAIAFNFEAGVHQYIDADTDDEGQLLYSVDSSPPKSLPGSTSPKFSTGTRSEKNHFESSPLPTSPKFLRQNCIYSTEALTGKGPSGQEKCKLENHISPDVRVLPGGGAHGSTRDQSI

Compound: S=c1ccccn1[O][Zn][O]n1ccccc1=S [ZnPy, Zinc Pyrithione]
- neuroprotection [1]: significantly decreasing brain infarct volume and neurological deficit
- V1/2 shift caused by ZnPy (KCNQ2(L249A/L275A)): completely abolished the V1/2 shift
- folds of current increase (KCNQ2(L249A/L275A); +50 mV, ZnPy): 8.6±2.2 folds
- effect on membrane potential (hippocampal neurons): noticeable hyperpolarization of membrane potential
- effect on repetitive firing elicited by current injection (hippocampal neurons; 200 pA current injection): immediately abolished the repetitive firing
- effect on membrane potential of CHO cells expressing KCNQ2 (KCNQ2; 10 μM ZnPy): significant hyperpolarization
- left (hyperpolarizing) shift of V1/2 (KCNQ2; 10 μM ZnPy): 25.5±1.5 mV
- effect on TEA-blocked KCNQ2 current (KCNQ2; 10 μM ZnPy extracellular in presence of 20 mM TEA): unable to reverse the TEA inhibition
- potentiation on intracellular application (KCNQ2; 10 μM ZnPy in pipette solution, with or without EGTA): induced no potentiation
- V1/2 on internal perfusion (KCNQ2; 10 μM ZnPy through recording pipette, 0 to 12 minutes): consistent and identical to that of KCNQ2 control
- effect on channel activity (KCNQ2; 10 μM ZnPy, extracellular): potentiated
- V1/2 (voltage required for half maximal activation) in presence of compound (KCNQ2; 10 μM ZnPy, control −18.9±0.6 mV): −44.4±0.9 mV
- activation time constant (KCNQ2; +50 mV, with ZnPy, control 163.5±13.7): 293.1±11.2 milliseconds
- Hill coefficient of dose dependent curve (KCNQ2; KCNQ2): 1.8
- EC50 (KCNQ2; KCNQ2 alone, read-out: EC50 of midpoint of activation voltage (V1/2) shift): 1500 ± 300 nM
- deactivation time constant (KCNQ2; −120 mV, 10 μM ZnPy, control 14.1±0.6): 54.4±0.9 milliseconds
- neuroprotection [2]: protection against cell loss in the selectively vulnerable zone of the CA1 region of the hippocampus
- effect on channel activity (KCNQ5): became conductive upon ZnPy treatment
- potentiation of channel activity [3]: did not potentiate
- hyperpolarizing shift of V1/2 (KCNQ2/3 heteromultimers; 10 μM ZnPy): 24.4±0.8 mV
- V1/2 in presence of compound (KCNQ2/3 heteromultimers; 10 μM ZnPy, control −20.3±0.8 mV): −44.7±1.9 mV
- activation time constant (KCNQ2/3 heteromultimers; +50 mV, with ZnPy, control 75.6±4.9): 157.8±23.5 milliseconds
- Hill coefficient of dose dependent curve (KCNQ2/3 heteromultimers; KCNQ2/3): 1.4
- EC50 (KCNQ2/3 heteromultimers; KCNQ2/3 heteromultimers, read-out: EC50 of midpoint of activation voltage (V1/2) shift): 2400 ± 400 nM
- deactivation time constant (KCNQ2/3 heteromultimers; −120 mV, 10 μM ZnPy, control 12.4±0.7): 41.9±6.4 milliseconds
